# In patent US8518677B2, “Microbial bioreaction process” (Evolva Sa, priority 2007, dated 2013):
# Where two headings read alike, the source gives them in different places.
# Legend:
# [1] = Stilbenoid levels in batch culture of PALCPR-evolved-III with nonyl-acetate vs control (HPLC); design: species or system S. cerevisiae; settings: for Upper phase (0.1 L) % total: PALCPR-solvent (PALCPR-evolved-III), 100 ml nonyl-acetate
# Procedure: (§1) A Phenomenex (Torrance, Calif., USA) Luna 3 micrometer C18 (100×2.00 mm) column was used at 60° C. As mobile phase a gradient of acetonitrile and milliq water (both containing 50 ppm trifluoroacetic acid) was used at a flow of 0.4 ml/min. The gradient profile was linear from 15% acetonitrile to 100% acetonitrile over 20 min.
# The stirrer speed was instantly set at 800 rpm. […] The cultivation will be referred to as PALCPR-solvent. […] The cultivation will be referred to as PALCPR-control.
# (§2) For the determination of stilbenoids, an aliquot of 25 ml of cell broth was collected, and phase separation was initiated by centrifugation at 3500 g for 5 minutes. Both the upper nonylacetate phase and the lower aqueous medium phase were collected separately with a pipette and directly analyzed for their content of stilbenoids and intermediates by HPLC.
# [2] = Stilbenoid levels in batch culture of solvent-adapted PALCPR, dodecane/octylacetate two-phase vs control (HPLC); design: species or system S. cerevisiae; settings: for Upper phase (0.3 L) % total: 200 ml dodecane + 100 ml octylacetate on 1 L medium; for Lower phase (1 L) % total: aqueous medium phase, dodecane/octylacetate
# Procedure: as §1
# [3] = Stilbenoid levels in two-phase batch culture of evolved PALCPR (PALCPR-evolved-I) with octylacetate (HPLC); design: species or system S. cerevisiae; settings: for Upper phase (0.1 L) % total: 100 ml octylacetate on 1 L medium; for Lower phase (1 L) % total: aqueous phase, octylacetate
# Procedure: as §1
# (§3) For that, cells of the culture described in the previous example were harvested during mid-exponential-phase and stored at −80° C. in 15% glycerol and subsequently a fermentor, containing the same medium as described in the previous example with 10 g/l glucose and 100 g/l galactose, was then inoculated with cells of said PALCPR-solvent culture. The cells were allowed to fully consume the glucose at a stirring speed of 1000 rpm with an average dissolved oxygen content of above 70% of saturated air. At the onset of galactose consumption, the stirring rate was turned down to 300 rpm, after which slowly 100 ml of octylacetate was added.
# (§4) For the determination of stilbenoids, an aliquot of 25 ml of cell broth was collected, and phase separation was initiated by centrifugation at 3500 g for 5 minutes. Both the upper octylacetate phase and the lower aquous medium phase were collected separately with a pipet and directly analyzed for their content of stilbenoids and intermediates by HPLC.
# [4] = Stilbenoid levels in two-phase batch culture of PALCPR-evolved-II with octylacetate (HPLC); design: species or system S. cerevisiae; settings: for Upper phase (0.1 L) % total: 100 ml octylacetate from start; for Lower phase (1 L) % total: aqueous phase, octylacetate
# Procedure: as §1
# However, the medium now only contained 100 g/l galactose and did contain 100 ml of octylacetate from the beginning of the fermentation. In addition, the stirrer speed was instantly set at 800 rpm. […] The strain is referred to as PALCPR-evolved-II.
# as §4
# [5] = Stilbenoid levels in two-phase batch culture of PALCPR-evolved-III with octylacetate (HPLC); design: species or system S. cerevisiae; settings: for Upper phase (0.1 L) % total: 100 ml octylacetate from start; for Lower phase (1 L) % total: aqueous phase, octylacetate
# Procedure: as §1
# The stirrer speed was instantly set at 800 rpm. […] The strain is referred to as PALCPR-evolved-III.
# as §4
# [6] = Stilbenoid levels in batch culture of non-evolved FS09229 with nonyl-acetate vs control (HPLC); design: species or system S. cerevisiae; settings: FS09229-solvent; for Upper phase (0.1 L) % total: 100 ml nonyl-acetate; for Lower phase (1 L) % total: aqueous phase, nonyl-acetate
# Procedure: as §1
# The non-evolved FS09229 strain described in previous examples was grown in the presence of nonyl-acetate. […] The stirrer speed was instantly set at 800 rpm. […] The cultivation will be referred to as FS09229-solvent. […] The cultivation will be referred to as FS09229-control.
# as §2
# [7] = test system: Escherichia coli strain FS06112; assay: Glycerol consumption of FS06112 shakeflask cultures in the presence of extraction solvent; type: cell-based
# Procedure: (§5) A glycerol stock of strain FS06112 was used to inoculate 500 ml baffled shake flasks that contained 100 ml modified M9 medium consisting of 4.5 g/l glycerol, 1.5 g/l yeast extract, 3 g/l K2HPO4, 6.8 g/l Na2HPO4, 0.5 g/l NaCl, 1 g/l NH4C, 50 μg/ml ampicillin and 50 μg/ml kanamycin; the initial pH was set at 7.0. The shakeflasks were incubated at ambient temperature, and were mixed with a magnetic stirring bar at approximately 150 rpm. After 5 hours, isopropyl β-thiogalactopyranoside (IPTG) was added at a final concentration of 4 mM, as an inducer of the T7 promoter that was in front of each of the three genes TAL, 4CL and VST. After one hour an aliquot of 10 ml of the solvent octyl acetate was added to one shakeflask that is now referred to as FS06112-solvent; the shakeflask culture without solvent will be referred to as FS06112-control.
# as §5, with “β-thiogalactopyranoside(IPTG)” for “β-thiogalactopyranoside (IPTG)”, “methyl decanoate” for “octyl acetate”
# A glycerol stock of strain FS06112 was used to inoculate 500 ml baffled shake flasks that contained 100 ml modified M9 medium consisting of 4.5 g/l glycerol, 1.5 g/l yeast extract, 3 g/l K2HPO4, 6.8 g/l Na2HPO4, 0.5 g/l NaCl, 1 g/l NH4C, 50 μg/ml ampicillin and 50 μg/ml kanamycin; the initial pH was set at 7.0. […]
# [8] = partition coefficient between water and octanol; cited from earlier work
# [9] = test system: S. cerevisiae strain PALCPR; assay: Growth of evolved PALCPR strains in the presence of extraction solvent (CO2 production); type: cell-based
# Procedure: as §3, with “The cells of the PALCPR-solvent culture described in the previous example were taken as starting point because the presence of the solvent mixture would possibly have already evoked adaptation of cells to solvents. For” for “For”
# Galactose consumption indeed commenced again. A small arrest in CO2 production again occurred after 20 hours which, however, recovered after 5 hours, after which the cells grew exponentially with concomitant production of CO2, consumption of galactose within less than 40 hours. Based upon the CO2 production the specific growth rate was estimated to be 0.062 1/h (FIG. 2). The final biomass concentration was 21.6 g/l.
# In order to further improve said strain in terms of length of lag-phase and growth rate, a 25 ml aliquot of the exponentional growing PALCPR-evolved-I strain was used to inoculate a fermentor, containing a similar medium as described in the previous example. However, the medium now only contained 100 g/l galactose and did contain 100 ml of octylacetate from the beginning of the fermentation. In addition, the stirrer speed was instantly set at 800 rpm. Upon inoculation of the fermentor, consumption of galactose only commenced after approximately 40 hours, indicated by a slow increase in CO2 signal, a decrease in dissolved oxygen and addition of base. Indeed the cells continued to grow exponentially with concomitant production of CO2, and consumed the galactose within less than 90 hours. Based upon the CO2 production the specific growth rate was estimated to be 0.041 1/h (FIG. 3). The final biomass concentration was 21.5 g/l. The strain is referred to as PALCPR-evolved-II.
# Therefore, to further improve said strain in terms of both length of lag-phase and growth rate, a 50 ml aliquot of the exponentional growing PALCPR-evolved-II strain was used to inoculate a fermentor, containing a similar medium as described in the previous example (thus containing 100 g/l galactose 100 ml of octylacetate from the beginning of the fermentation). The stirrer speed was instantly set at 800 rpm. Upon inoculation of the fermentor, consumption of galactose already commenced after less then 20 hours, indicated by a slow increase in CO2 signal, a decrease in dissolved oxygen and addition of base. Indeed the cells further grew exponentially with concomitant production of CO2, and now consumed the galactose within approximately 50 hours. Based upon the CO2 production the specific growth rate was estimated to be 0.091 1/h (FIG. 4). The final biomass concentration was 18.9 g/l. The strain is referred to as PALCPR-evolved-III.
# The evolved PALCPR-evolved-III strain described in the previous example was grown in the presence of nonyl-acetate, a similar solvent as octylacetate with one additional carbon atom. A 1 ml aliquot of a glycerol stock that was made from an exponentional growing PALCPR-evolved-III strain was used to inoculate a fermentor, containing a similar medium as described in the previous example, containing only 100 g/l galactose and 100 ml of nonyl-acetate from the beginning of the fermentation. The stirrer speed was instantly set at 800 rpm. Upon inoculation of the fermentor, consumption of galactose only commenced after approximately 70 hours, indicated by a slow increase in CO2 signal, a decrease in dissolved oxygen and addition of base. […]
# [10] = PALCPR-evolved-II, 100 ml solvent from start, 800 rpm
# [11] = PALCPR-evolved-III, 100 ml solvent from start, 800 rpm, fresh inoculum
SMILES,Upper phase (0.3 L) % total [2] [% total],Lower phase (1 L) % total [2] [% total],Upper phase (0.1 L) % total [3] [% total],Lower phase (1 L) % total [3],Upper phase (0.1 L) % total [4] [% total],Lower phase (1 L) % total [4],Upper phase (0.1 L) % total [5] [% total],Lower phase (1 L) % total [5] [% total],Upper phase (0.1 L) % total [6] [% total],Lower phase (1 L) % total [6],logP [8],further results
"O=C(O)C=Cc1ccccc1 [Cinnamic acid, cinnamic acid]",56.9,43.1,52.5,47.5 % total,88.6,11.4 % total,71.3,28.7,42.2,57.8 % total,,"Upper phase (0.1 L) % total [1]: 29.6 % total; Upper phase (0.1 L) % total ([1]; listed as cinnamic acid): 25 % total; Lower phase (1 L) % total ([1]; PALCPR-solvent, aqueous phase, nonyl-acetate): 70.4 % total; Upper phase (0.1 L) % total ([6]; listed as cinnamic acid): 42 % total"
"O=C(O)/C=C/c1ccc(O)cc1 [Coumaric acid, 4-coumaric acid]",,,18.0,82.0 % total,59.3,40.7 % total,40.0,60.0,,,,
"Oc1cc(O)cc(/C=C/c2ccccc2)c1 [Pinosylvin, pinosylvin]",95.2,4.8,100,0; 0 % total,100,0; 0 % total,90.3,9.7,100,0.0; 0.0 % total,,Upper phase (0.3 L) % total ([2]; listed as pinosylvin): 95 % total; Upper phase (0.1 L) % total ([5]; listed as pinosylvin): 100 % total
CCCCCCCCCC(=O)OC [methyl decanoate],,,,,,,,,,,4.3,time in which the glycerol was consumed [7]: ≤ 48 h
CCCCCCCCOC(C)=O [n-octyl acetate],,,,,,,,,,,3.7,"lag-phase until galactose consumption commenced [9, 10]: approximately 40 hours; specific growth rate [9, 10]: 0.041 h⁻¹; lag-phase until galactose consumption commenced [9, 11]: < 20 h; specific growth rate [9, 11]: 0.091 h⁻¹; time until cells started to grow after solvent addition (lag-phase) ([9]; cells from PALCPR-solvent culture (PALCPR-evolved-I), 100 ml solvent added to 1 L): approximately 170 hours; specific growth rate ([9]; cells from PALCPR-solvent culture (PALCPR-evolved-I), 100 ml solvent added to 1 L at onset of galactose consumption): 0.062 h⁻¹; time in which 2.5 g/l of glycerol was consumed [7]: ≤ 24 h"
CCCCCCCCCC(C)=O [undecanone],,,,,,,,,,,,"time in which the glycerol was consumed ([7]; FS06112-solvent, 10 ml solvent on 100 ml medium, control 30 hours): ≤ 48 h"
